Where a SMILES comes first, the peptide text is derived from it.
Key:
[1] = Phase II clinical trial with dnaJP1 in RA: safety, adverse events; type: in vivo, human; conditions: 25 mg per os daily, 168 days
Protocol: A double-blinded, placebo-controlled ITT trial was designed to test for the first time if immune tolerization to dnaJp1 observed in the trial translated into clinical amelioration of the disease. dnaJP1 was tested as a first line inducer of remission in patients with early RA.

[2] = system: T cells; conditions: human, in vivo

**Q.** With `C[C@H](NC(=O)[C@H](C)NC(=O)[C@H](Cc1c[nH]cn1)NC(=O)CNC(=O)[C@H](Cc1ccc(O)cc1)NC(=O)[C@H](CCC(N)=O)NC(=O)[C@H](CC(=O)O)NC(=O)[C@H](Cc1ccc(O)cc1)NC(=O)[C@H](C)NC(=O)[C@H](C)NC(=O)[C@H](CCCNC(=N)N)NC(=O)[C@H](CCCCN)NC(=O)[C@@H](N)CCC(N)=O)C(=O)N[C@@H](Cc1ccccc1)C(=O)N[C@@H](CCC(=O)O)C(=O)O` [dnaJP1, QKRAAYDQYGHAAFE] (H-QKRAAYDQYGHAAFE-OH) as the compound, how does the safety and tolerability [1] read?
**A.** safe and well tolerated

**Q.** And the “ability of T cells to respond to the recall antigen Tetanus Toxoid” value [2]?
**A.** remained intact

— patent US9707284B2, “Formulations of peptides and chloroquines for the treatment of pathogenic immune responses in immune mediated diseases” (The Regents of the University of California, priority 2006, dated 2017)
